Experimental data from patent US20240199613A1 (TAKEDA PHARMACEUTICAL COMPANY LIMITED, priority 2021, published 2024).

Legend:
[1] = biological target: T1, plasma kallikrein (Homo sapiens, UniProt P03952); experiment: Neat human plasma assay: contact pathway-activated (FXIIa) plasma, PFR-AMC substrate; assay type: biochemical; conditions: citrated human plasma (78% final), 10 nM human FXIIa, 100 μM PFR-AMC, room temperature
T1 construct: from tissue; host or cells: sodium citrate collected human plasma (78% final)
Procedure, shortened: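 Compounds spiked into citrated human or rat plasma (78% final), or plasma taken from orally or IV dosed rats, activated with 10 nM human FXIIa; 100 μM PFR-AMC cleavage read at 360/480 nm for 5 min, room temperature. Rates vs concentration fit to 4-parameter IC50/IC90 equation.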

[2] = biological target: human activated kallikrein enzyme (Homo sapiens, UniProt P03952); experiment: Inhibition of activated plasma kallikrein, fluorogenic peptide substrate (PFR-AMC) assay, 500 pM enzyme format; assay type: biochemical; conditions: 500 pM activated kallikrein, 300 uM PFR-AMC, 30 min preincubation, 10 min reaction, room temperature; read-out: Primary Dose Response Assay: Average EC50
Procedure, shortened: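 500 pM enzyme preincubated 30 min at room temperature with inhibitor in 20 mM Tris pH 7.5, 150 mM NaCl, 1 mM EDTA, 0.1% PEG-400, 0.1% Triton X-100. Reaction started with 300 uM PFR-AMC and run 10 min at room temperature. Fluorescence read at 380 nm excitation/460 nm emission.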

human activated kallikrein enzyme, sequence (P03952 391-638 limits assumed): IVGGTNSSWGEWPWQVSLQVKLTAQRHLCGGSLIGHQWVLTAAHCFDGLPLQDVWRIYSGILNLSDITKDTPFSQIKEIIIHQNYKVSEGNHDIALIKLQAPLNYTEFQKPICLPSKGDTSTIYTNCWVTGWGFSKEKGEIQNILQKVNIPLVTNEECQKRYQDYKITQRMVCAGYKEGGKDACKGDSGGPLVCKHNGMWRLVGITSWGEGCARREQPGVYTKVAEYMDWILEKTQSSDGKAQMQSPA
human activated kallikrein enzyme, sequence (P03952 20-390 partner limits assumed): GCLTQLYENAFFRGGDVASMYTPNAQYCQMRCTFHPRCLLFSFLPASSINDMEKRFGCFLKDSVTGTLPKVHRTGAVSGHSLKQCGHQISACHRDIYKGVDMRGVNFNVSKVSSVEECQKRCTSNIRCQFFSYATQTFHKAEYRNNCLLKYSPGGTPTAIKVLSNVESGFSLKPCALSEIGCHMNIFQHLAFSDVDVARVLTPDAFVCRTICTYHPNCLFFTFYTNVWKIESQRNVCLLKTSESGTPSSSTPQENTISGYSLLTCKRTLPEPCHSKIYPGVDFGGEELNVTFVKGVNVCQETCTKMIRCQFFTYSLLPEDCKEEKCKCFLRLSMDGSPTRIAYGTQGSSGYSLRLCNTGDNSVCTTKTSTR
T1 sequence (P03952 391-638 limits assumed): as the sequence (P03952 391-638 limits assumed) above
T1 sequence (P03952 20-390 partner limits assumed): as the sequence (P03952 20-390 partner limits assumed) above

| SMILES | IC90 [1] [nM] | EC50 [2] [nM] |
| --- | --- | --- |
| Cc1ccnc([C@H]2C[C@@H]2C2=NS(=O)(=O)c3ccc(NCc4cn5cc(C6CC6)cc(F)c5n4)cc3N2)n1 [Example 105, 6-(((6-cyclopropyl-8-fluoroimidazo[1,2-a]pyridin-2-yl)methyl)amino)-3-((1S,2S)-2-(4-methylpyrimidin-2-yl)cyclopropyl)-4H-benzo[e][1,2,4]thiadiazine 1,1-dioxide] | ≤ 400 | ≤ 1 |
| Cc1ccnc([C@H]2C[C@@H]2c2cc(N3CC4(COC4)C3)c3ccc(NCc4cc5cc(C6CC6)cc(N6CC(=O)N(C)C6=O)n5n4)cc3n2)n1 [Example 107, 1-(5-cyclopropyl-2-(((2-((1S,2S)-2-(4-methylpyrimidin-2-yl)cyclopropyl)-4-(2-oxa-6-azaspiro[3.3]heptan-6-yl)quinolin-7-yl)amino)methyl)pyrazolo[1,5-a]pyridin-7-yl)-3-methylimidazolidine-2,4-dione] | ≤ 400 | ≤ 1 |
| Cc1ccnc([C@H]2C[C@@H]2c2cc(N3CC4(COC4)C3)c3ccc(OCc4cc5cc(C6CC6)cc(N6CC(=O)N(C)C6=O)n5n4)cc3n2)n1 [Example 108, 1-(5-cyclopropyl-2-(((2-((1S,2S)-2-(4-methylpyrimidin-2-yl)cyclopropyl)-4-(2-oxa-6-azaspiro[3.3]heptan-6-yl)quinolin-7-yl)oxy)methyl)pyrazolo[1,5-a]pyridin-7-yl)-3-methyl imidazolidine-2,4-dione] | ≤ 400 | ≤ 1 |

The remaining lines, values ahead:

| IC90 [1] [nM] | EC50 [2] [nM] | SMILES |
| --- | --- | --- |
| ≤ 400 | ≤ 1 | Cc1ccnc([C@H]2C[C@@H]2c2cc(N3CC4(COC4)C3)c3ccc(N[C@H](C)c4cn5cc(C6CC6)cc(N6CC(=O)N(C)C6=O)c5n4)cc3n2)n1 [Example 101, 1-(6-cyclopropyl-2-((R)-1-((2-((1S,2S)-2-(4-methylpyrimidin-2-yl)cyclopropyl)-4-(2-oxa-6-azaspiro[3.3]heptan-6-yl)quinolin-7-yl)amino)ethyl)imidazo[1,2-a]pyridin-8-yl)-3-methylimidazolidine-2,4-dione] |
| ≤ 400 | ≤ 1 | Cc1ccnc([C@H]2C[C@@H]2c2cc(N3CC4(COC4)C3)c3cnc(OCc4cn5cc(C6CC6)cc(N6CC(=O)N(C)C6=O)c5n4)cc3n2)n1 [Example 103, 1-(6-cyclopropyl-2-(((2-((1S,2S)-2-(4-methylpyrimidin-2-yl)cyclopropyl)-4-(2-oxa-6-azaspiro[3.3]heptan-6-yl)-1,6-naphthyridin-7-yl)oxy)methyl)imidazo[1,2-a]pyridin-8-yl)-3-methylimidazolidine-2,4-dione] |
